Results: PubChem BioAssay AID330 (DTP/NCI, 2004)
“And” between values parts separate entries of the source, which are not always exact repeats. Identical values can stand only once. Inconclusive results and toxic doses are left out. How the source made its calls: active means survival T/C of 150% or more; inactive means T/C below 125% in these data.

Tested on: P388 leukemia ip, CD2F1 mice, survival T/C
Experiment: NCI In Vivo Anticancer Drug Screen. Data for tumor model P388 Leukemia (intraperitoneal) in CD2F1 (CDF1) mice
Settings: endpoint: median survival time, higher = longer survival
How it was run: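 Mice carrying the transplanted tumor received test compound or vehicle. Survival was recorded in each group, and the value is the treated-group measurement divided by that of the vehicle-treated control group.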

[1] = dose: 3.12 mg/kg/injection, schedule: Q01DX009 (ip), vehicle: Klucel (hydroxypropylcellulose) (HPC)
[2] = dose: 6.25 mg/kg/injection, schedule: Q01DX009 (ip), vehicle: Klucel (hydroxypropylcellulose) (HPC)
[3] = dose: 50.0 mg/kg/injection, schedule: Q01DX009 (ip), vehicle: saline with Tween-80
[4] = dose: 100.0 mg/kg/injection, schedule: Q01DX009 (ip), vehicle: saline with Tween-80
[5] = dose: 100.0 mg/kg/injection, schedule: Q01DX001 (ip), vehicle: Klucel (hydroxypropylcellulose) (HPC)
[6] = dose: 50.0 mg/kg/injection, schedule: Q01DX005 (ip), vehicle: Klucel (hydroxypropylcellulose) (HPC)
[7] = dose: 100.0 mg/kg/injection, schedule: Q01DX005 (ip), vehicle: Klucel (hydroxypropylcellulose) (HPC)
[8] = dose: 200.0 mg/kg/injection, schedule: Q01DX005 (ip), vehicle: Klucel (hydroxypropylcellulose) (HPC)
[9] = dose: 50.0 mg/kg/injection, schedule: Q01DX009 (ip), vehicle: Klucel (hydroxypropylcellulose) (HPC)
[10] = dose: 3.12 mg/kg/injection, schedule: Q01DX005 (ip), vehicle: Klucel (hydroxypropylcellulose) (HPC)
[11] = dose: 12.5 mg/kg/injection, schedule: Q01DX009 (ip), vehicle: Klucel (hydroxypropylcellulose) (HPC)
[12] = dose: 25.0 mg/kg/injection, schedule: Q01DX009 (ip), vehicle: Klucel (hydroxypropylcellulose) (HPC)
[13] = dose: 50.0 mg/kg/injection, schedule: Q01DX005 (ip), vehicle: saline with Tween-80
[14] = dose: 60.0 mg/kg/injection, schedule: Q01DX005 (ip), vehicle: saline with Tween-80

Measured: T/C

CC(=O)C1C(=O)C=C(C)OC1=O.CC(=O)C1C(=O)C=C(C)OC1=O.[Hg] (centres undefined)
inactive: dose: 1.56 mg/kg/injection, schedule: Q01DX009 (ip), vehicle: Klucel (hydroxypropylcellulose) (HPC) 88 % of control | [1] 101 % of control | [2] 91 % of control and 93 % of control

COc1ccc2c(c1)CCC(Cc1ccc(Cl)cc1)C2c1ccc(OCCN2CCCC2)cc1 (centres undefined)
inactive: dose: 6.25 mg/kg/injection, schedule: Q01DX005 (ip), vehicle: suspension in saline 100 % of control | dose: 12.5 mg/kg/injection, schedule: Q01DX005 (ip), vehicle: suspension in saline 98 % of control | dose: 25.0 mg/kg/injection, schedule: Q01DX005 (ip), vehicle: suspension in saline 98 % of control | dose: 50.0 mg/kg/injection, schedule: Q01DX005 (ip), vehicle: suspension in saline 100 % of control

O=C(/C=C/c1ccccc1)Oc1cc([N+](=O)[O-])cc([N+](=O)[O-])c1
inactive: dose: 100.0 mg/kg/injection, schedule: Q04DX002 (ip), vehicle: saline with Tween-80 112 % of control | dose: 200.0 mg/kg/injection, schedule: Q04DX002 (ip), vehicle: saline with Tween-80 105 % of control

Ic1ccc(N=Cc2cccs2)cc1
inactive: [3] 106 % of control | [4] 108 % of control | dose: 200.0 mg/kg/injection, schedule: Q01DX009 (ip), vehicle: saline with Tween-80 123 % of control | dose: 400.0 mg/kg/injection, schedule: Q01DX009 (ip), vehicle: saline with Tween-80 115 % of control

N#Cc1nnc2cccc(Cl)n12
inactive: dose: 25.0 mg/kg/injection, schedule: Q01DX001 (ip), vehicle: Klucel (hydroxypropylcellulose) (HPC) 96 % of control | dose: 50.0 mg/kg/injection, schedule: Q01DX001 (ip), vehicle: Klucel (hydroxypropylcellulose) (HPC) 95 % of control | [5] 97 % of control

COC1CC(OC2C(C)OC(OC3C(C)OC(OC4CCC5(C)C(=CCC6(O)C5CC(OC(=O)c5ccc(O)cc5)C5(C)C(O)(C(C)=O)CCC65O)C4)CC3OC)CC2OC)OC(C)C1O (centres undefined) (tested in a mixture with another compound)
inactive: dose: 12.5 mg/kg/injection, schedule: Q01DX005 (ip), vehicle: distilled water + Tween-80 + alcohol 100 % of control | dose: 25.0 mg/kg/injection, schedule: Q01DX005 (ip), vehicle: distilled water + Tween-80 + alcohol 94 % of control | dose: 50.0 mg/kg/injection, schedule: Q01DX005 (ip), vehicle: distilled water + Tween-80 + alcohol 101 % of control | dose: 100.0 mg/kg/injection, schedule: Q01DX005 (ip), vehicle: distilled water + Tween-80 + alcohol 115 % of control

CN1C(=O)CCCCCCCCCCSc2ccccc21
inactive: [6] 93 % of control | [7] 97 % of control | [8] 88 % of control

CCn1c2nc(=O)n(C)c(=O)c-2[n+]([O-])c2cc(C)ccc21
inactive: dose: 6.25 mg/kg/injection, schedule: Q04DX003 (ip), vehicle: saline with Tween-80 88 % of control | dose: 12.5 mg/kg/injection, schedule: Q04DX003 (ip), vehicle: saline with Tween-80 86 % of control | dose: 25.0 mg/kg/injection, schedule: Q04DX003 (ip), vehicle: saline with Tween-80 88 % of control | dose: 50.0 mg/kg/injection, schedule: Q04DX003 (ip), vehicle: saline with Tween-80 86 % of control

OC1CN(C(c2ccccc2)c2ccccc2)C1
inactive: [9] 100 % of control | dose: 100.0 mg/kg/injection, schedule: Q01DX009 (ip), vehicle: Klucel (hydroxypropylcellulose) (HPC) 108 % of control | dose: 200.0 mg/kg/injection, schedule: Q01DX009 (ip), vehicle: Klucel (hydroxypropylcellulose) (HPC) 104 % of control

C=C(C)COc1ccc(C)cc1Br
inactive: [6] 101 % of control | [7] 103 % of control | [8] 113 % of control

CN1C2C=C(c3ccccc3)CC1CC2 (centres undefined)
inactive: dose: 0.75 mg/kg/injection, schedule: Q01DX005 (ip), vehicle: saline 94 % of control | dose: 1.5 mg/kg/injection, schedule: Q01DX005 (ip), vehicle: saline 108 % of control | dose: 1.56 mg/kg/injection, schedule: Q01DX005 (ip), vehicle: Klucel (hydroxypropylcellulose) (HPC) 105 % of control | dose: 3.0 mg/kg/injection, schedule: Q01DX005 (ip), vehicle: saline 102 % of control | [10] 103 % of control

Nc1c(Cl)cc(Cl)cc1Cl
inactive: dose: 100.0 mg/kg/injection, schedule: Q04DX003 (ip), vehicle: alcohol 108 % of control | dose: 200.0 mg/kg/injection, schedule: Q04DX003 (ip), vehicle: alcohol 100 % of control | dose: 400.0 mg/kg/injection, schedule: Q04DX003 (ip), vehicle: alcohol 100 % of control

C1=C(OC(=Nc2ccccc2)N2CCOCC2)N=C(OC(=Nc2ccccc2)N2CCOCC2)/C1=C1\C=C(OC(=Nc2ccccc2)N2CCOCC2)N=C1OC(=Nc1ccccc1)N1CCOCC1
inactive: [5] 104 % of control | dose: 200.0 mg/kg/injection, schedule: Q01DX001 (ip), vehicle: Klucel (hydroxypropylcellulose) (HPC) 107 % of control | dose: 400.0 mg/kg/injection, schedule: Q01DX001 (ip), vehicle: Klucel (hydroxypropylcellulose) (HPC) 106 % of control

O=C(O)C(Nc1ccccn1)(c1ccccc1)c1ccccc1
inactive: dose: 60.0 mg/kg/injection, schedule: Q01DX005 (ip), vehicle: Klucel (hydroxypropylcellulose) (HPC) 102 % of control | dose: 120.0 mg/kg/injection, schedule: Q01DX005 (ip), vehicle: Klucel (hydroxypropylcellulose) (HPC) 102 % of control | dose: 240.0 mg/kg/injection, schedule: Q01DX005 (ip), vehicle: Klucel (hydroxypropylcellulose) (HPC) 98 % of control

Cc1cc2c(=O)[nH]c(N)nc2[nH]1
inactive: dose: 12.5 mg/kg/injection, schedule: Q01DX009 (ip), vehicle: suspension in saline 99 % of control | dose: 25.0 mg/kg/injection, schedule: Q01DX009 (ip), vehicle: suspension in saline 115 % of control | dose: 50.0 mg/kg/injection, schedule: Q01DX009 (ip), vehicle: suspension in saline 113 % of control and 116 % of control

CC1CCC2C(C)C(=O)OC2C2(C)C(=O)C=CC12 (centres undefined)
inactive: dose: 12.5 mg/kg/injection, schedule: Q01DX009 (ip), vehicle: saline with Tween-80 103 % of control | dose: 25.0 mg/kg/injection, schedule: Q01DX009 (ip), vehicle: saline with Tween-80 113 % of control | [3] 110 % of control

CSCNC(=S)Nc1ccc(Cl)c(Cl)c1
inactive: [3] 100 % of control | [4] 107 % of control

CCCN(C)N=Nc1ccccc1C(=O)O
inactive: [1] 111 % of control | [2] 91 % of control | [11] 110 % of control | [12] 110 % of control | [9] 105 % of control

Cc1ccc(C2(O)c3ccccc3N=NN2C)cc1 (centres undefined)
inactive: [13] 100 % of control | dose: 100.0 mg/kg/injection, schedule: Q01DX005 (ip), vehicle: saline with Tween-80 100 % of control | dose: 200.0 mg/kg/injection, schedule: Q01DX005 (ip), vehicle: saline with Tween-80 96 % of control

CCCCCCC(=O)CC(SCCO)c1ccccc1Cl (centres undefined)
inactive: [14] 92 % of control | dose: 120.0 mg/kg/injection, schedule: Q01DX005 (ip), vehicle: saline with Tween-80 107 % of control | dose: 240.0 mg/kg/injection, schedule: Q01DX005 (ip), vehicle: saline with Tween-80 114 % of control

ICCCCCCCCCC[n+]1ccc2ccccc2c1
inactive: [13] 107 % of control

C=C(Cl)C(=NC(C)(C)C)Nc1ccccc1C
inactive: dose: 1.56 mg/kg/injection, schedule: Q01DX005 (ip), vehicle: saline 100 % of control | [10] 103 % of control | dose: 3.12 mg/kg/injection, schedule: Q01DX005 (ip), vehicle: saline 102 % of control | dose: 6.25 mg/kg/injection, schedule: Q01DX005 (ip), vehicle: Klucel (hydroxypropylcellulose) (HPC) 107 % of control and 117 % of control | dose: 6.25 mg/kg/injection, schedule: Q01DX005 (ip), vehicle: saline 109 % of control and 118 % of control | dose: 12.5 mg/kg/injection, schedule: Q01DX005 (ip), vehicle: Klucel (hydroxypropylcellulose) (HPC) 117 % of control | dose: 12.5 mg/kg/injection, schedule: Q01DX005 (ip), vehicle: saline 108 % of control | dose: 25.0 mg/kg/injection, schedule: Q01DX005 (ip), vehicle: Klucel (hydroxypropylcellulose) (HPC) 121 % of control

CCOC(=O)/C=C(\I)C(=O)OCC
inactive: [2] 109 % of control | [11] 100 % of control | [12] 98 % of control

C=C1C(=O)C(CCC)=C(CC)C1O (centres undefined)
inactive: [14] 105 % of control
